Experimental data taken from publication PMC9827972, “Identification of 2,4‐Dinitro‐Biphenyl‐Based Compounds as MAPEG Inhibitors” (Chemmedchem, 2022).
Like-named read-outs stand apart in the source and are kept apart here.

Assays:
[1] = biological target: T1, human recombinant LTC4S (Homo sapiens, UniProt Q16873); assay: Determination of LTC4 synthase activity in microsomes of HEK293 cells expressing LTC4S; type: biochemical; conditions: for inhibition of LTC4S activity (in words): microsomal preparations of HEK293 cells expressing human recombinant LTC4S
T1 construct: expressed in transfected cells; host or cells: HEK293 cells stably expressing LTC4S; microsomal fraction
T1 sequence (Q16873 1-150): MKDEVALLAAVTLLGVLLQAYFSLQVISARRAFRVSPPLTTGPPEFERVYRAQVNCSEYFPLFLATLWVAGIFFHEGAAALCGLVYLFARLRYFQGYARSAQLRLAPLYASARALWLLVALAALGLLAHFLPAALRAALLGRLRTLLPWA
Experimental: Determination of LTC4 synthase activity. HEK293 cells stably expressing human recombinant LTC4S (HEK_LTC4S) were used to generate microsomes containing LTC4S. Briefly, HEK_LTC4S cells were frozen in liquid nitrogen and sonicated 3×20 s at 4 °C in homogenization buffer (0.1 M potassium phosphate buffer, pH 7.4, 1 mM phenylmethanesulfonylfluoride, 60 μg/mL soybean trypsin inhibitor, 1 μg/mL leupeptin, 2.5 mM glutathione, and 250 mM sucrose). Lysates were sequentially centrifuged at 10,000×g, 10 min at 4 °C and 174,000×g for 1 h at 4 °C. The microsomal fraction (2.5 μg) was resuspended in assay buffer (0.1 M potassium buffer pH 7.4, plus 5 mM glutathione) and preincubated with the test compound or vehicle (0.1 % DMSO) for 10 min at 4 °C. The reactions were started by adding 1 μM LTA4‐methyl ester (Cayman, Ann Arbor, MI) and stopped after 10 min incubation at 4 °C by 1 vol. ice‐cold methanol. Acidified PBS and LTC4‐methyl ester‐d5 as internal standard were added prior solid phase extraction, and LTC4‐methyl ester formation was analyzed by UPLC‐MS/MS as described.[43] UPLC‐MS/MS was carried out by Acquity UPLC BEH C18 column (1.7 μm, 2.1×50 mm, waters) and QTRAP 5500 Mass spectrometer (AB Sciex). LTC4‐methyl ester and LTC4‐d5 methyl ester (standard) were detected by multiple reaction monitoring in the negative ion mode by a method described previously.[44]
Reversed phase liquid chromatography and mass spectrometry. LTC4S metabolites were separated on an Acquity ultra performance liquid chromatography (UPLC) BEH C18 column (1.7 μm, 2.1×50 mm, Waters, Milford, MA) using an Acquity^TM UPLC system (Waters, Milford, MA, USA) as previously described.[42] The chromatography system was coupled to a QTRAP 5500 Mass Spectrometer (AB Sciex, Darmstadt, Germany) equipped with an electrospray ionization source. LTC4S metabolites were quantified by multiple reaction monitoring in the negative using a previously reported method with a lower limit of detection of 150 to 600 pg mL^−1 and linear quantification range up to 200 ng mL^−1.[22] Automatic peak integration was performed with ANALYST 1.6 software (Sciex, Darmstadt, Germany) using IntelliQuan default settings. Data were normalized on the internal standard PGB1 and are given as relative intensities.

[2] = test system: 5‐LOX product formation in human neutrophils; assay: 5-LOX product formation in intact human neutrophils stimulated with A23187 (FLAP-dependent); conditions: Neutrophil, read-out: IC50 cell‐based 5‐LOX
Experimental: Blood cell isolation and cultivation of cell lines. Human neutrophils were freshly isolated from peripheral blood obtained at the Institute for Transfusion Medicine of the University Hospital Jena (Germany) as described.[45] Briefly, human peripheral blood was collected in heparinized tubes (16 I. E. heparin/mL blood) by venipuncture from fasted (12 h) adult healthy volunteers, with consent, and leukocyte concentrates were prepared by centrifugation (4000×g, 20 min, 20 °C). The subjects had no apparent inflammatory conditions and had not taken anti‐inflammatory drugs for at least ten days prior to blood collection. Neutrophils were immediately isolated by dextran sedimentation and centrifugation on Nycoprep cushions (PAA Laboratories, Linz, Austria) and hypotonic lysis of erythrocytes was performed under hypotonic conditions. Neutrophils were finally resuspended in PBS pH 7.4 containing 1 mg/mL glucose and 1 mM CaCl2 (purity >96‐97 %).
5‐LOX activity assay. […] […] 30 μL 1 N HCl and 500 μL PBS, and 200 ng PGB1 were added and the samples were subjected to solid phase extraction on C18‐columns (100 mg, UCT, Bristol, PA, USA). 5‐LOX products (LTB4, all‐trans isomers of LTB4, and 5‐hydro(pero)xy‐6,8,11,14‐ eicosatetraenoic acid (5‐H(p)ETE) were analyzed by RP‐HPLC and quantities calculated referencing to the internal standard PGB1.

[3] = biological target: T2, mPGES‐1 (Homo sapiens, UniProt O14684); conditions: cell-free; cited from earlier work
T2 construct: Microsomes derived from A549 cells expressing mPGES‐1; endogenous in cells; host or cells: A549 cells (microsomes)
T2 sequence (O14684 1-152): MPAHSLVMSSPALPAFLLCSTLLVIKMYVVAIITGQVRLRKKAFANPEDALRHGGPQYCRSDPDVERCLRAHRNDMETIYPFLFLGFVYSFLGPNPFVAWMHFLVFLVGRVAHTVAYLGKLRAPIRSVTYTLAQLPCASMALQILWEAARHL

[4] = biological target: T2, mPGES‐1; assay: mPGES-1 washout assay in microsomes of A549 cells; type: biochemical; conditions: for residual mPGES-1 enzyme activity: % of vehicle control
Experimental: mPGES‐1 washout assay. Microsomes derived from A549 cells expressing mPGES‐1 were incubated with low (1 μM) or high concentrations (10 μM) of compound 1 d. After 15 min an aliquot of the sample containing 10 μM 1 d was diluted 10‐fold with buffer to reach a final concentration of 1 μM. After another 5 min the substrate PGH2 (20 μM) was added. The reaction was stopped after 60 s to determine PGE2 formation. Washout data are presented as means of residual activity ± SD in % of vehicle treated control for n=3 independent experiments. Outliers were determined using Grubb's test (GraphPad Software, La Jolla, CA). Samples were not blinded.

[5] = biological target: T3, 5‐LOX/FLAP interaction (Homo sapiens, UniProt P20292); assay: In situ proximity ligation assay of 5-LOX/FLAP interaction in HEK293 cells; type: cell-based; conditions: HEK293 cells expressing 5-LOX and FLAP, 2.5 μM A23187; 1 d 3 μM
T3 construct: expressed in transfected cells; host or cells: HEK293 cells stably transfected with 5-LOX and FLAP
T3 sequence (P20292 1-161): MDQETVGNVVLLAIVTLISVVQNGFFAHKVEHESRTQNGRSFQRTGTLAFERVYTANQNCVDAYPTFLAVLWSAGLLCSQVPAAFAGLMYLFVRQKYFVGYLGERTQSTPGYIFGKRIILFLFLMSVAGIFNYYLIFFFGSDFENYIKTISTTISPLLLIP
Experimental: Cell culture. The human embryonic kidney cell line HEK293 was cultured as monolayer at 37 °C and 5 % CO2 in DMEM High glucose containing 10 % heat‐inactivated fetal calf serum (FCS), 100 U/mL penicillin and 100 μg/mL streptomycin. HEK293 cells stably expressing human recombinant 5‐LOX and FLAP were selected by 400 μg/mL geneticin and 200 μg/mL hygromycin B, respectively, as described before.[21]
Analysis of 5‐LOX/FLAP interaction by in situ proximity ligation assay. The manufacturer's protocol[46] for proximity ligation assay was used to detect in situ interaction of 5‐LOX with FLAP in HEK293 cells stably expressing both proteins as reported elsewhere.[24] Cells were pretreated with test compounds for 10 min at 37 °C, then treated with 2.5 μM Ca^2+‐ionophore A23187 for another 10 min, fixed, and incubated with primary antibody overnight as described before.[24] Samples were then incubated for 1 h (37 °C) with species‐specific secondary antibodies conjugated with oligonucleotides (PLA probe anti‐mouse MINUS and anti‐rabbit PLUS). The antibody‐bound oligonucleotides formed a DNA circle by addition of ligase (30 min, 37 °C). […] Protein‐protein‐interactions occurred as magenta fluorescent spots analyzed with an Axiovert 200 M microscope (Carl Zeiss) and a Plan Neofluar×40/1.3 Oil (DIC III) objective (Carl Zeiss).

[6] = biological target: T4, human recombinant 5‐LOX (Homo sapiens, UniProt P09917); assay: Human recombinant 5-LOX activity assay (cell-free); type: biochemical; conditions: 20 μM arachidonic acid
T4 construct: made in house; host or cells: Escherichia coli BL21 (DE3)
T4 sequence (P09917 1-674): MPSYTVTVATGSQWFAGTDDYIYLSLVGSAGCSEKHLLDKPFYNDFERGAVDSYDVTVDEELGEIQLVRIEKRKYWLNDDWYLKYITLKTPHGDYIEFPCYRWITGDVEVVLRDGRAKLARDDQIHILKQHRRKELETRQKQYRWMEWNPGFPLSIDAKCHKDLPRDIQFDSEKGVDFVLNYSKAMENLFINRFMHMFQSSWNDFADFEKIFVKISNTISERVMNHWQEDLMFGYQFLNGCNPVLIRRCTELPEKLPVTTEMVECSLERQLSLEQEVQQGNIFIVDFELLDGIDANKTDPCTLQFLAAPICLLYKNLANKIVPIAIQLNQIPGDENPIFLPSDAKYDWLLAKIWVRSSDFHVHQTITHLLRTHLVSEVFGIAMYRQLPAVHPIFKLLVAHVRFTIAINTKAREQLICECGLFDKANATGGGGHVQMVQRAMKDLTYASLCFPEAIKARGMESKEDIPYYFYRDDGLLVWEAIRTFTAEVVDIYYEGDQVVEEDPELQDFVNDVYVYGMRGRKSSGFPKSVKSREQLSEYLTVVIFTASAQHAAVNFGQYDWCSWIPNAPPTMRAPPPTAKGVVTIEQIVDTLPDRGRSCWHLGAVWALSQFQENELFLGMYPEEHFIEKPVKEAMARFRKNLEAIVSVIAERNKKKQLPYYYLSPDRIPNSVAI
Experimental: Human recombinant 5‐LOX activity assay. Human recombinant 5‐LOX was expressed in Escherichia coli (E. coli BL21 (DE3)) cells and partially purified by affinity chromatography using an ATP‐agarose column as described.[22] Semi‐purified 5‐LOX (specific activity: 1.6 ± 0.2 μg 5‐LOX products per μg protein) was diluted in PBS containing EDTA (1 mM) and ATP (1 mM) to a concentration of 0.5 μg mL^−1 and immediately pre‐incubated with the test compounds (1 μL in DMSO; final DMSO concentration: 0.1 %) for 10 min at 4 °C. Samples were pre‐warmed for 30 s at 37 °C, and 5‐LOX product formation was initiated adding 2 mM CaCl2 and 20 μM arachidonic acid. The reaction was stopped after 10 min at 37 °C adding 1 mL ice‐cold methanol. Formed 5‐LOX metabolites (all‐trans isomers of LTB4 and 5‐H(p)ETE) were extracted and an aliquot of 50 μL analyzed by reversed phase‐HPLC (RP‐HPLC) as described.[23] Data were normalized to the vehicle control to avoid variations independent of test compounds.

[7] = biological target: T3, 5‐LOX/FLAP interaction; set-up: method as in PMID 24905297, PMID 28839250; conditions: HEK cells, same experimental conditions; cited from earlier work

SMILES	IC50 [1] [nM]	inhibition of LTC4S activity (in words) [1]	IC50 ([2]; Homo sapiens, 5 h) [µM]	further results
O=[N+]([O-])c1cc([N+](=O)[O-])c(-c2ccc(COc3cccc(C(F)(F)F)c3)cc2)cc1F [1 a]	1680 ± 210	significantly inhibited LTC4S activity	3.93 ± 0.24	
O=[N+]([O-])c1cc([N+](=O)[O-])c(-c2ccc(OCc3ccccc3)cc2)cc1F [1 b]	> 100000	did not show inhibitory activity	> 100	IC50 [3]: 600 ± 1200 nM
O=[N+]([O-])c1cc([N+](=O)[O-])c(-c2ccc(COc3cccc4ccccc34)cc2)cc1F [1 c]	> 100000	did not show inhibitory activity	4.18 ± 0.16	
O=[N+]([O-])c1cc([N+](=O)[O-])c(-c2ccccc2COc2cccc(C(F)(F)F)c2)cc1F [1 d]		significantly inhibited LTC4S activity		residual mPGES-1 enzyme activity ([4]; 1 μM 1 d): 83.3%; residual mPGES-1 enzyme activity ([4]; 10 μM 1 d): 21.3%; mPGES-1 enzymatic activity after washout ([4]; 10-fold dilution from 10 to 1 μM): 72.5%; mechanism of mPGES-1 inhibition ([4]; washout experiment): reversible mechanism of inhibition; effect on 5‐LOX/FLAP interaction (PLA) [5]: able to block the 5‐LOX/FLAP interaction; IC50 ([1]; microsomes of HEK293 cells expressing human recombinant LTC4S, 1 μM LTA4-methyl ester, read-out: IC50 cell‐free LTC4S): 930 ± 40 nM; IC50 ([2]; human neutrophils, 2.5 μM A23187, LTB4, its trans isomers and 5-H(p)ETE): 1.4 ± 0.09 µM; IC50 [6]: 3.35 ± 0.22 µM
COCCc1ccc(OCc2ccc(-c3cc(F)c([N+](=O)[O-])cc3[N+](=O)[O-])cc2)cc1 [1 e]	> 100000	did not show inhibitory activity	3.31 ± 0.27	
CC(C)c1ccc2c(c1)c(SC(C)(C)C)c(CC(C)(C)C(=O)O)n2Cc1ccc(Cl)cc1 [MK886]				effect on 5‐LOX/FLAP interaction (PLA), earlier reports [7]: does block the interaction
CC(c1cc2ccccc2s1)N(O)C(N)=O (stereo not drawn) [zileuton]				effect on 5‐LOX/FLAP interaction (PLA), earlier reports [7]: inefficiency
